Earlier results in patent US12350336B2, “Photo-activatable compound, its preparation and therapeutic use” (City University of Hong Kong, priority 2021, dated 2025).

Conditions: calibration standard value

CN(C)c1ccc2nc3ccc(=[N+](C)C)cc-3sc2c1 [MB, Methylene blue]
ΦΔ (1O2 quantum yield) of calibration standard: 0.52
